Source: patent US20090093541A1, “MELANIN ELIMINATOR PREPARATION” (OGA RESEARCH, INC, priority 2002, published 2009)

Legend:
blotches and lentigines = assay: Lotion applied to blotches and lentigines (general description); format: in vivo, human; conditions: lotion containing 0.5 (w/w)%; applied one or two times daily; about one month
Text: The effect was also noted on blotches formed on the acne scars, showing clear difference compared with the pre-treatment conditions.

[1] = tested on: lentigo (1-mm diameter) on the arm; assay: Test Example 5: topical application to a lentigo on the arm; format: in vivo, human; conditions: topically applied twice daily, preparation according to Preparation Example 1, two months later
Procedure: To a lentigo (1-mm diameter) on the arm was topically applied twice daily a preparation that was prepared according to Preparation Example 1 except that N-(6,8-dimercaptooctanoyl)histidine sodium/zinc chelate of Example 2 was used instead of N-(6,8-dimercaptooctanoyl)anthranilic acid sodium/zinc chelate of Example 2.

Row | Substance | melanin eliminating effect on blotches and lentigines (fading from black to pale umber or falling off as a scab) (blotches and lentigines) | elimination of black color of lentigo [1]
1 | N-(6,8-dimercaptooctanoyl)-3-aminopropionic acid sodium/zinc chelate compound [Example 10] | satisfactory effects | –
2 | N-(6,8-dimercaptooctanoyl)anthranilic acid sodium/zinc chelate compound [Reference Example 8] | satisfactory effects | –
3 | N-(6,8-dimercaptooctanoyl)histidine sodium/zinc chelate compound [Example 2] | – | the black color was found eliminated leaving a subtle scar behind
